The text below walks through data of patent publication US20250297321A1, “METHOD FOR DETECTING METABOLIC REPROGRAMING OF CANCER TOWARDS FATTY ACIDS METABOLISM” (INSTITUT NATIONAL DE LA SANTE ET DE LA RECHERCHE MEDICALE, priority 2022, published 2025).

Common to all, as to format: cell-based, human
The subject of test [1] is Huh7 cells. Kind of test: Huh7 cell growth (RelB overexpressing cells). As to conditions: 4-BCA 10 μM, 48 h, vs control cells (FIG. 4B). The protocol: (§1) Huh7 HCC cell line and genetically engineered derivatives targeting RelB expression levels (knock-down of RelB expression: Huh7 shRNA human RelB & Huh7 shRNA control; RelB overexpression: Huh7 cDNA human WT Rel & Huh7 cDNA control) were grown in MEM culture medium supplemented with 10% of fetal bovine serum (FBS), 100 U/mL penicillin, and […] streptomycin, 25 mM Hepes Buffer, 1 mM of sodium pyruvate, 1% of non-essential amino-acids (NEAA), which stands for standard culture medium. Huh7 genetically engineered cell lines were only used at passage P1 to P6. Cells passaging occurred twice a week to maintain a condition of 75% confluence. To evaluate the effect of fatty acid treatment, Huh7 cells cultured in FBS-free medium for hours were treated for 16 hours in FBS-free medium supplemented with various concentration (50 to 300 μM) of either oleic or palmitic acid along with 1% of free fatty acid bovine serum albumin.
(§2) Cell viability was assessed using trypan blue dye exclusion.

A further test has as its system SUDHL-4 cells. Kind of test: Induction of cell death in SUDHL-4 cells. Particulars: glycolytic BCR SUDHL-4 cells. The protocol:
(§3) DLBCL cells were harvested and washed twice with cold PBS. Cells were resuspended in 1× binding buffer containing Annexin V/APC (BD Biosciences Pharmingen) and 4′,6-diaminidino-2-phenylindole (DAPI, Molecular Probes) for 15 min at room temperature. The samples were subjected to cytometric analysis with a MACSQuant Analyzer 10 Flow Cytometer (Miltenyi Biotec) and the data were analyzed using the Flowjo v10.2 software.
as §2

A further test has as its system MD901 cells. The test can be described thus: Induction of cell death in MD901 cells. The protocol:
as §3, §2

The next test concerns OCILY19 cells. Kind of test: Induction of cell death in OCILY19 cells. The protocol: as §3, §2
The test system of test [2] is Huh7 cells. The test can be described thus: Huh7 cell death, DAPI staining. As to conditions: RelB overexpressing Huh7, palmitic acid 50 μM, 0% FBS, 48 h, in presence of 4-BCA (FIG. 4C). The protocol: as §1, with “Huh7 cells cultured in FBS-free medium for hours were treated for 16 hours in FBS-free medium supplemented with various concentration (50 to 300 μM) of either oleic or palmitic acid along with 1% of free fatty” left out
Huh7 cells were stained with 4′, 6-diamidino-2-phenylindole (DAPI). Then, images were acquired for DAPI positive cells by fluorescent microscopy (magnification: 20×) on at least 6 different fields combined with one acquisition under white light to quantify the total number of cells in the same field. Quantification was carried out by image J software. Cell death is expressed in percentage (number of DAPI positive cells/total number of cells per field)*100).

For test [3], the system named is MD901 DLBCL cell line. The test can be described thus: Mitochondrial transmembrane potential (TMRM) in MD901. Particulars: RelB knocked-down MD901, TMRM low (FIG. 8B). The protocol: For determination of mitochondrial transmembrane potential (ΔΨm), cells were stained with 100 nM of Tetramethyl rhodamine methyl ester (TMRM) (Molecular Probes) in RPMI-1640 Glutamax medium for 30 min at room temperature. Cells were evaluated by cytometric analysis as above. During apoptosis, the permeabilization of the mitochondrial outer membrane leads to loss of mitochondrial transmembrane potential (ΔΨm) corresponding to TMRM low/DAPI neg cells.

The subject of test [4] is MD901 DLBCL cell line. The test can be described thus: Annexin V/DAPI apoptosis assay in MD901. Particulars: for Apoptosis by Annexin V/DAPI staining: MD901 (FIG. 8A); for Drug-induced apoptosis upon RelB-expression knockdown: RelB knocked-down MD901 vs shRNA control (FIG. 8A). The protocol:
MD901 and SUDHL-4 DLBCL cell lines were obtained from Jos6 Angel Martinez-Climent (Centro de Investigación Médica Aplicada, Pamplona, Spain).
as §3

In the case of `O=C(O)/C=C/CBr` [4-BCA, 4-bromocrotonic acid], the “Cell growth in RelB overexpressing Huh7 cells” value with Huh7 cells [1] was “the RelB-dependent increase in Huh7 cell number was lost and cell growth rate was even lowered compared to the control cells”. Moreover, the “Sensitivity to 4-BCA treatment” value in the test with SUDHL-4 cells (compared with MD901 / Oci-Ly19 (not shown)) was “much less sensitive”. Also, the “Cell death upon inhibition of fatty acid oxidation” value in the test with MD901 cells (MD901, as soon as 24 hours post-treatment (FIG. 9A)) was “massive and rapid cell death”; in the test on OCILY19 cells (Oci-Ly19, as soon as 24 hours post-treatment (FIG. 10A)), “massive and rapid cell death”. In the test on Huh7 cells [2], the “Cell death (DAPI positive cells), RelB pro-survival effect against palmitate” value is on record as “RelB pro-survival effect was almost completely abolished”.
Take `C=C1C(=O)OC(CCCCCCCC)C1C(=O)O` (stereo not shown) [C75]: the “Sensitivity to C75” value in the test with SUDHL-4 cells (compared with MD901 / Oci-Ly19) is “much less sensitive”. The “Cell death upon inhibition of fatty acid synthesis” value in the test with MD901 cells (MD901, as soon as 24 hours post-treatment (FIG. 11A)) was “massive and rapid cell death”; in the test on OCILY19 cells (Oci-Ly19, as soon as 24 hours post-treatment (FIG. 12A)) it was “massive and rapid cell death”.
Turning to `CN(C)C(=N)N=C(N)N` [Metformin, metformin], the “Loss of mitochondrial potential upon RelB-expression knockdown” value in the test with MD901 DLBCL cell line [3] is recorded as “increase in loss of mitochondrial potential”. Further, in the test with MD901 DLBCL cell line [4], the “Apoptosis by Annexin V/DAPI staining” value is reported as “significant apoptosis” and the “Drug-induced apoptosis upon RelB-expression knockdown” value is listed as “markedly increased”. For the same molecule, the “Cell death induced by metformin upon knockdown of RelB expression” value with MD901 DLBCL cell line [4] (RelB knocked-down MD901) was “even more pronounced cell death”.
Regarding `COc1cc(Nc2ncc(F)c(Nc3ccc4c(n3)NC(=O)C(C)(C)O4)n2)cc(OC)c1OC` [R406], in the test with MD901 DLBCL cell line [4] (MD901 (FIG. 6A)), the “Sensitivity to R406-induced apoptosis” value is “insensitive”.

B1: Kidrolase®: L-asparaginase; catalyzes the hydrolysis of asparagine and glutamine into aspartate and glutamate (protein, UniProt P00805 23-348, looked up)
L-asparaginase 2: LPNITILATGGTIAGGGDSATKSNYTVGKVGVENLVNAVPQLKDIANVKGEQVVNIGSQDMNDNVWLTLAKKINTDCDKTDGFVITHGTDTMEETAYFLDLTVKCDKPVVMVGAMRPSTSMSADGPFNLYNAVVTAADKASANRGVLVVMNDTVLDGRDVTKTNTTDVATFKSVNYGPLGYIHNGKIDYQRTPARKHTSDTPFDVSKLNELPKVGIVYNYANASDLPAKALVDAGYDGIVSAGVGNGNLYKSVFDTLATAAKTGTAVVRSSRVPTGATTQDAEVDDAKYGFVASGTLNPQKARVLLQLALTQTKDPQQIQQIFNQY
On to B1, for which the “Loss of mitochondrial potential upon RelB-expression knockdown” value with MD901 DLBCL cell line [3] is “increase in loss of mitochondrial potential”. Further, in the test on MD901 DLBCL cell line [4], the “Apoptosis by Annexin V/DAPI staining” value was “significant apoptosis” and the “Drug-induced apoptosis upon RelB-expression knockdown” value is “markedly increased”.
